Values joined by “and” are separate entries in the source; they are usually repeats but may differ in a detail not shown here. Equal entries are not always repeated.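 Protocol summary: plate cells (96-well), add compound at 5 concentrations, incubate 48 h, interpolate endpoints linearly. GI50 is the concentration that inhibits growth by half. TGI is the concentration that stops growth completely.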
Legend:
Assay in all cases: NCI anticancer screen, dose series, 48 h
HT29 colon = system: HT29 colon
K-562 leukemia = system: K-562 leukemia
KM12 colon = system: KM12 colon
NCI-H522 lung = system: NCI-H522 lung
OVCAR-3 ovarian = system: OVCAR-3 ovarian
SK-OV-3 ovarian = system: SK-OV-3 ovarian
SNB-75 CNS = system: SNB-75 CNS
TK-10 renal = system: TK-10 renal
U251 CNS = system: U251 CNS
UACC-62 melanoma = system: UACC-62 melanoma

| Compound | TGI (HT29 colon) | GI50 (K-562 leukemia) | TGI (K-562 leukemia) | TGI (KM12 colon) | TGI (NCI-H522 lung) | GI50 (OVCAR-3 ovarian) | TGI (OVCAR-3 ovarian) | GI50 (SK-OV-3 ovarian) | TGI (SK-OV-3 ovarian) | GI50 (SNB-75 CNS) | GI50 (TK-10 renal) | TGI (TK-10 renal) | GI50 (U251 CNS) | TGI (U251 CNS) | GI50 (UACC-62 melanoma) | TGI (UACC-62 melanoma) | GI50 (HT29 colon) | GI50 (KM12 colon) | GI50 (NCI-H522 lung) | TGI (SNB-75 CNS) |
| --- | --- | --- | --- | --- | --- | --- | --- | --- | --- | --- | --- | --- | --- | --- | --- | --- | --- | --- | --- | --- |
| CC1CCC2c3c([nH]c4ccccc34)C3C(=O)N(c4ccccc4)C(=O)C3C2C1 (centres undefined) | > 250 µM | 54.8 µM | 202 µM | > 250 µM | > 250 µM | > 250 µM | > 250 µM | 13.2 µM | 28.5 µM and 99.6 µM | 12.1 µM | 45.5 µM | 67.5 µM and 181 µM | 37.5 µM | > 250 µM | 22.7 µM | 82.2 µM and > 250 µM | – | – | – | – |
| N=C(N)c1ccc(OCCCCCOc2ccc(C(=N)N)cc2)cc1 | > 50 µM and 60.4 µM and > 100 µM | 2.8 µM | 32.7 µM and 15.4 µM and > 100 µM | 14.3 µM and 20.9 µM and 31 µM | 9.58 µM and 21.3 µM | 5.25 µM | 15.4 µM and 34.9 µM and 37 µM | – | > 50 µM and 29.8 µM and 22.3 µM | – | 8.49 µM | 18.9 µM and 27.6 µM and 48.3 µM | 2.79 µM | 13.2 µM and 22.5 µM and 34.5 µM | 2.02 µM | 9.38 µM and 23.6 µM and 29.6 µM | 5.05 µM and 15.8 µM and 35.5 µM | 2.5 µM and 6.35 µM and 14.3 µM | 1.66 µM | 33.1 µM and 18.3 µM and > 100 µM |
| Cc1cn2c(/C=C3/C(=O)Nc4ccc(C(=O)O)cc43)c(C)nc2s1 | > 100 µM | > 100 µM | > 100 µM | > 100 µM | > 100 µM | > 100 µM | > 100 µM | > 100 µM | > 100 µM | > 100 µM | > 100 µM | > 100 µM | > 100 µM | > 100 µM | > 100 µM | > 100 µM | > 100 µM | > 100 µM | > 100 µM | > 100 µM |
| c1ccc2c(c1)[O][Sn][O]2 | > 150 µg/mL | 91.6 µg/mL | > 150 µg/mL | > 150 µg/mL | 8.78 µg/mL | 10.9 µg/mL | > 150 µg/mL | > 150 µg/mL | > 150 µg/mL | 100 µg/mL | 101 µg/mL | > 150 µg/mL | > 150 µg/mL | > 150 µg/mL | 35.5 µg/mL | > 150 µg/mL | 95.4 µg/mL | 21.8 µg/mL | 2.03 µg/mL | > 150 µg/mL |
| C/C(CC(=O)Nc1cccc(Cl)c1C)=N\N=C(N)N | > 100 µM | – | > 100 µM | > 100 µM | > 100 µM | – | > 100 µM | – | > 100 µM | – | – | > 100 µM | – | > 100 µM | – | > 100 µM | – | – | – | > 100 µM |
| Oc1c(I)cc(Cl)c2cccnc12 | > 100 µM | 3.91 µM | > 100 µM | 49.9 µM and 47.7 µM | 30.2 µM and 36.4 µM | 5.62 µM and 21.3 µM | 65.1 µM and 61.5 µM | 6.24 µM and 9.06 µM | 22 µM and > 100 µM | 4.42 µM | 31.3 µM and 24 µM | > 100 µM and 73.8 µM | 3.9 µM and 3.65 µM | > 100 µM and 32.8 µM | 1.81 µM and 2.06 µM | 4.56 µM and 5.09 µM | 11.3 µM and 6.1 µM | 5.98 µM and 18.2 µM | 3.93 µM and 14.5 µM | > 100 µM |
| CCN(CCNc1ccc(C)c2sc3cc(Cl)ccc3c(=O)c12)CC(C)(C)O | 4.86 µM | 3.19 µM | 11.7 µM | 5.54 µM | 20 µM | 18.6 µM | 62.9 µM | 6.21 µM | 20.4 µM | 3.31 µM | 3.59 µM | 13.9 µM | 4.51 µM | 18.5 µM | 1.67 µM | 3.37 µM | 2 µM | 2.32 µM | 3.82 µM | 16.8 µM |

— PubChem BioAssay (NCI)
